Results reported in patent publication US9585975B2, “MRI contrast agents” (NORTHWESTERN UNIVERSITY, priority 2012, dated 2017).
Where “and” joins values, the source holds several entries; their conditions need not be identical. Equal values may be shown once. Read-outs that look alike come from different tables or passages of the source.

Assays:
[1] = Relaxivity determination of free (unbound) contrast agents; assay type: physicochemical; details: 37° C.
Method: The relaxation rates and Gd(III) concentrations were determined for contrast agent solutions in a range of concentrations. The relaxation rates of small molecule contrast agents were investigated using a 4 mM starting solution in water and diluted 1:1 four times. […] Relaxation rates were determined using a 60 MHz (1.5 T) NMR analyzer (Bruker Minispec MQ60) at 37° C. using 500 μL in a 7.5 mm inner diameter NMR tubes. T1 relaxation times were determined using monoexponential curve fitting and an inversion recovery pulse sequence with four averages for each of 10 data points.

HaloTag protein = details: 37° C.
Method: The HaloTag protein was expressed recombinantly after subcloning the target protein into the vector pMCSG7 to include an N-terminal His6-Tag followed by a TEV protease cleavage site. The protein was expressed in BL21(DE3) cells and purified by Nickel affinity chromatography. […] The HaloTag protein was labeled with a 5-fold molar excess of the Gd(III) complex at 4 degrees C. overnight. […] The labeled proteins were concentrated to a starting concentration of ˜600 μM for all relaxivity analyses.
Longitudinal relaxivities of the unbound agents were determined in water and the protein-bound contrast agents in 10 mM MOPS at 1.5 T, 37_C (Table 1).
To prepare the protein-bound contrast agent 12.5 mg protein was incubated overnight at 4° C. with five equivalents haloalkane label. Excess label was removed by size-exclusion chromatography (Econo-Pac 10 DG Disposable Chromatography Columns) and dialysis overnight into 10 mM MOPS, pH 7.4 (Spectrum Spectra/Por 4 Dialysis Membrane Tubing 12-14K MWCO) at 4° C. The protein-bound contrast agent was concentrated to a starting concentration of ˜600 μM for all relaxivity assays (Amicon Ultra-4, PLGC Ultracel-PL Membrane, 10 kDa). Agent binding was detected by mass spectrometry (Agilent 6510 Accurate-Mass Q-TOF LC/MS) and data deconvolution was performed with the included software (Agilent MassHunter Qualitative Analysis).
The relaxation rates and Gd(III) concentrations were determined for contrast agent solutions in a range of concentrations. The relaxation rates of small molecule contrast agents were investigated using a 4 mM starting solution in water and diluted 1:1 four times. Relaxation rates of protein bound contrast agents were measured using 600 μM starting solution in 10 mM MOPS and was diluted 1:1 four times. Relaxation rates were determined using a 60 MHz (1.5 T) NMR analyzer (Bruker Minispec MQ60) at 37° C. using 500 μL in a 7.5 mm inner diameter NMR tubes. T1 relaxation times were determined using monoexponential curve fitting and an inversion recovery pulse sequence with four averages for each of 10 data points.
Gd(III) concentrations for all samples were measured by ICP-MS. Samples were prepared by dissolving 10 μL into 90 μL trace nitric acid, and diluted to 10 mL with ultrapure water (nitric acid was added to generate a 3% solution. Samples contained a multi-element internal standard consisting of 5 ppb each Bi, Ho, In, Li(6), Sc, Tb, and Y (Spex Certiprep, Metuchen, N.J., USA). ICP-MS was performed on a computer-controlled (Plasmalab software) Thermo X series II ICP-MS (Thermo Fisher Scientific, Waltham, Mass., USA) equipped with an ESI SC-2 autosampler (Omaha, Nebr., USA). Each sample was acquired using 1 survey run (10 sweeps) and 3 main (peak jumping) runs (100 sweeps).

[2] = 1.5 T, 37 degrees C.; cited from earlier work
HSA = HSA (Homo sapiens, UniProt P02768); details: 1.5 T, 37 degrees C.; cited from earlier work
Chain of HSA (P02768 25-609): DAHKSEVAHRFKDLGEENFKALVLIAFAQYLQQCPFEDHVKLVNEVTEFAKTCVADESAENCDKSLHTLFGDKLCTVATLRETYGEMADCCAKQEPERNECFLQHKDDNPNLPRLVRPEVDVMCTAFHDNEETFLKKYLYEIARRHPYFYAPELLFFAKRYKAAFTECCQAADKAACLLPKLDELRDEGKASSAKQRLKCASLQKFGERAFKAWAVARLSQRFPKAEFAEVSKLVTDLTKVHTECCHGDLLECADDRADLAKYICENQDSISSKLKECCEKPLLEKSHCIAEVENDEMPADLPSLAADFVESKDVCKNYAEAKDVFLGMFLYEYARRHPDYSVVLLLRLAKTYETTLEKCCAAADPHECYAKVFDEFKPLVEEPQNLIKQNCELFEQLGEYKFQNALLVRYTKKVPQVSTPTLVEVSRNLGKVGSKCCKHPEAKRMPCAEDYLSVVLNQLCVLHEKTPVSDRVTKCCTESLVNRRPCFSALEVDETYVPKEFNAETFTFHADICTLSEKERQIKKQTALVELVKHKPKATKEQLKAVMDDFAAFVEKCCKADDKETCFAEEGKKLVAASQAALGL

| SMILES | r2 - F (transverse relaxivity, free) ([1]; 60 MHz) | r1 - F (longitudinal relaxivity, free) ([1]; 400 MHz) | r2 - F (transverse relaxivity, free) ([1]; 400 MHz) | r1 - PB (longitudinal relaxivity, protein-bound) (HaloTag protein; 60 MHz (1.5 T), 10 mM MOPS) | r2 - PB (transverse relaxivity, protein-bound) (HaloTag protein; 60 MHz) | r1 - PB (longitudinal relaxivity, protein-bound) (HaloTag protein; 400 MHz) | r2 - PB (transverse relaxivity, protein-bound) (HaloTag protein; 400 MHz) | relaxivity, unbound [2] | relaxivity when bound to HSA (HSA) |
| --- | --- | --- | --- | --- | --- | --- | --- | --- | --- |
| O=C([O-])CN1CCN(CCC(=O)NCCOCCOCCCCCCCl)CCN(CC(=O)[O-])CCN(CC(=O)[O-])CC1.[Gd+3] [2CHTGd] | 3.9 ± 0.5 mM⁻¹ s⁻¹ | 3.3 ± 0.1 mM⁻¹ s⁻¹ | 4.1 ± 0.1 mM⁻¹ s⁻¹ | 22.0 mM⁻¹ s⁻¹ and 22.0 ± 2.2 mM⁻¹ s⁻¹ | 45.3 ± 5.5 mM⁻¹ s⁻¹ | 5.1 ± 0.7 mM⁻¹ s⁻¹ | 56 ± 8 mM⁻¹ s⁻¹ | – | – |
| O=C([O-])CN1CCN(CC(=O)[O-])CCN(CC(=O)NCCOCCOCCCCCCCl)CCN(CC(=O)[O-])CC1.[Gd+3] [1CHTGd] | 4.1 ± 0.2 mM⁻¹ s⁻¹ | 3.2 ± 0.1 mM⁻¹ s⁻¹ | 4.0 ± 0.1 mM⁻¹ s⁻¹ | 13.4 ± 1.3 mM⁻¹ s⁻¹ | 25.2 ± 2.6 mM⁻¹ s⁻¹ | 4.0 ± 0.2 mM⁻¹ s⁻¹ | 28 ± 2 mM⁻¹ s⁻¹ | – | – |
| O=C([O-])CN(CCN(CC(=O)[O-])C[C@H](COP(=O)([O-])OC1CCC(c2ccccc2)(c2ccccc2)CC1)N(CC(=O)[O-])CC(=O)[O-])CC(=O)[O-].[Gd+3].[H+].[H+].[H+] [MS-325] | – | – | – | – | – | – | – | 5.5 mM⁻¹ s⁻¹ | 25 mM⁻¹ s⁻¹ |
| O=C([O-])CN1CCN(CCCC(=O)NCCOCCOCCCCCCCl)CCN(CC(=O)[O-])CCN(CC(=O)[O-])CC1.[Gd+3] [3CHTGd] | 5.8 ± 0.1 mM⁻¹ s⁻¹ | 6.0 ± 0.2 mM⁻¹ s⁻¹ | 4.9 ± 0.2 mM⁻¹ s⁻¹ | 7.6 ± 0.7 mM⁻¹ s⁻¹ | 13.1 ± 0.9 mM⁻¹ s⁻¹ | 2.7 ± 0.1 mM⁻¹ s⁻¹ | 15.9 ± 0.1 mM⁻¹ s⁻¹ | – | – |
| O=C([O-])CN1CCN(CCCCC(=O)NCCOCCOCCCCCCCl)CCN(CC(=O)[O-])CCN(CC(=O)[O-])CC1.[Gd+3] [4CHTGd] | 6.5 ± 0.5 mM⁻¹ s⁻¹ | 5.6 ± 0.2 mM⁻¹ s⁻¹ | 6.9 ± 0.2 mM⁻¹ s⁻¹ | 8.6 ± 1.1 mM⁻¹ s⁻¹ | 15.9 ± 2.3 mM⁻¹ s⁻¹ | 3.3 ± 0.2 mM⁻¹ s⁻¹ | 19.6 ± 1.3 mM⁻¹ s⁻¹ | – | – |
